# Target: T1, PPARα (Homo sapiens, UniProt Q07869)
# T1 construct: expression construct for the full-length human receptor under investigation; expressed in transfected cells; host or cells: human U2-OS cells (ATCC HTB-96), stably transfected
# T1 sequence (Q07869 1-468): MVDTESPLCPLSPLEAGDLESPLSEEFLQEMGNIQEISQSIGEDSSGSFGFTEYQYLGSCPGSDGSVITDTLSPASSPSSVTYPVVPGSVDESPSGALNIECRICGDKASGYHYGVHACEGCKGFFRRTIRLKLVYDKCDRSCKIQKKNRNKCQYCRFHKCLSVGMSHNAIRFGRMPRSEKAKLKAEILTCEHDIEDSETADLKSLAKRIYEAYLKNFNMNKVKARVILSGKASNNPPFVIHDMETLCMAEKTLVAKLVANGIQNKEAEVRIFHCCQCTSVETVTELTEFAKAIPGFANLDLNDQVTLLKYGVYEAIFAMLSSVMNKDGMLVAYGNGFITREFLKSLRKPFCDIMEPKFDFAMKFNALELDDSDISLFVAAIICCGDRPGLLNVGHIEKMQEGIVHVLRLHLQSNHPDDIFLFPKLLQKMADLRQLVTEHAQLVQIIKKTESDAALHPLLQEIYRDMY
# Assay: PPARα CALUX reporter gene assay
# Format: cell-based
# Parameters: key: –: no effect observed up to the highest test concentration
# Conditions: PC10, 24 h exposure
# Excerpt: Succinyl chloride (2 M soln. in dichloromethane), N-methylbutylamine 90%, N-ethylbutylamine 95%, Dibutylamine 99% were purchased from TCI chemicals. K60 silica was purchased from Merck chemicals. Succinic acid ≥99.0%, N-methylpyrrolidinone 99.0%, 1-bromooctane ≥97.0%, 1-methylimidazole 99.0%, iodobenzene 99.9%, methylacrylate 99.9%, palladium(II) acetate ≥99.9% trace metals basis, triethylamine ≥99.0%, trimesic acid 95%, copper(II) nitrate trihydrate ≥99.0%, 2-methylimidazole 99.0%, zinc(II) nitrate hexahydrate ≥99.0%, para-cymene 99.0%, 1,4-dioxane 99.8% (anhydrous), 4-nitroaniline ≥99.0%, 1-octanol ≥99.0%, diglyme ≥99.0%, DMSO-d6 (99.8% D) and chloroform-d (99.8% D) were purchased from Sigma-Aldrich. Toluene ≥99.0%, hexane ≥99.5%, DCM ≥99.5%, chloroform ≥99.5%, DMSO ≥99.0% were purchased from VWR. N,N-diethyl-4-nitroaniline ≥98.0% was purchased from Alfa Aeser. Cyrene was supplied by Circa group. N-butylpyrrolidinone was supplied by Eastman chemicals. N,N-dimethylformamide 99.9% and N,N-dimethylacetamide 99.9% were purchased from Fischer. The flakes of Ultrason® E3020 P Polyarylethersulfone of 55,000 Da were obtained from INGE.BASF, Germany. The CALUX cell lines have been described previously.[1] They are based on human U2-OS cells (ATCC, HTB-96) stably transfected with an expression construct for the full-length human receptor under investigation, and a reporter construct consisting of multimerized responsive elements for the cognate receptor coupled to a minimal promoter element (TATA) and a luciferase gene. Cells were maintained as described previously,[2] using cell culture media and supplements from Fisher Scientific as described in the experimental procedures section. […]
# In vitro reporter gene assays
# The automated CALUX assays were carried out similarly as described earlier,[12] with some adaptations. In brief, the assay was performed in CO2 independent medium (Fisher Scientific, […]
# supplement (Fisher Scientific, 11574466), 10 U/mL penicillin and 10 µg/mL streptomycin. A cell suspension in assay medium was made of 1 × 10^5cells/mL, and white 384-wells plates were seeded with 30 µl cell suspension/well. After 24 h, exposure medium was prepared. A dilution series in 0.5log unit increments of each test compound (in DMSO) was added to a 96-wells plate containing assay medium (2% v/v). Of this exposure mixture, 30 µl was added to the assay plates containing the CALUX cells, resulting in a final DMSO concentration of 1%. Additionally, DMSO blanks and a full dose response curve of the relevant reference compound were included on each plate. All samples were tested in triplicate. The preparation of the compound dilution series as well as the exposure of the cells were performed on a Hamilton StarLET liquid handling robot coupled to a Cytomat incubator.
# Directly after exposure, plates were sealed with non-breathing plate seals (Plate sealer, easy seal transparent; Greiner-Bio-One, 676001). After 24 h the exposure medium was removed using an EL406 washer-dispenser (BioTek) and 10 µl/well triton lysisbuffer was added by the EL406.
# Subsequently, the luciferase signal was measured in a luminometer (InfinitePro coupled to a Connect Stacker, both TECAN). In order to be able to detect receptor antagonism, several assays were also performed in antagonistic mode. […]
# The luminometer data was analysed as follows; the average of the triplicate wells was determined, and the average blank (DMSO) value was subtracted. […]
row,Structure (SMILES),LEC PPARα
1,"CCCCN(CCCC)C(=O)CCC(=O)N(CCCC)CCCC [TBSA, N,N,N′,N′‐tetrabutylsuccindiamide]",–
2,"CCCCN(CC)C(=O)CCC(=O)N(CC)CCCC [EBSA, N,N′‐diethyl‐N,N′‐dibutylsuccindiamide]",–
3,"CN1CCCC1=O [NMP, N‐methyl‐2‐pyrrolidone, reference compound]",–
4,"CCCCN(C)C(=O)CCC(=O)N(C)CCCC [MBSA, N,N′‐dimethyl‐N,N′‐dibutylsuccindiamide]",–
5,"CCCCN1CCCC1=O [NBP, N‐Butylpyrrolidinone, reference compound]",–
